Test results published in paper PMC12748989 (Nature Communications, 2025).

What was measured:
PBMC = settings: 12.5 µM

CC[C@H](C)[C@H](N)C(=O)N[C@@H](CC(N)=O)C(=O)N[C@@H](CC(C)C)C(=O)N[C@@H](CCCCN)C(=O)N[C@@H](CCCNC(=N)N)C(=O)N[C@@H](CC(C)C)C(=O)N[C@@H](C)C(=O)N[C@@H](C)C(=O)N[C@@H](CC(C)C)C(=O)N[C@@H](C)C(=O)N[C@@H](CCCCN)C(=O)N[C@@H](CCCCN)C(=O)N[C@H](C(=O)N[C@@H](CC(C)C)C(N)=O)[C@@H](C)CC [R5]
Average (percentage cell inhibition), Mastoparan PBMC (PBMC): -0.4192% | Average (percentage cell inhibition), Dmastoparan MDA-MB231 12.5uM (MDA-MB-231 cells): 27.1833%

CC[C@H](C)[C@H](N)C(=O)N[C@@H](CC(N)=O)C(=O)N[C@@H](CC(C)C)C(=O)N[C@@H](CCCCN)C(=O)N[C@@H](C)C(=O)N[C@@H](CCCNC(=N)N)C(=O)N[C@@H](C)C(=O)N[C@@H](C)C(=O)N[C@@H](CC(C)C)C(=O)N[C@@H](C)C(=O)N[C@@H](CCCCN)C(=O)N[C@@H](CCCCN)C(=O)N[C@H](C(=O)N[C@@H](CC(C)C)C(N)=O)[C@@H](C)CC [R6]
Average (percentage cell inhibition), Mastoparan PBMC (PBMC): -10.6069% | Average (percentage cell inhibition), Dmastoparan MDA-MB231 12.5uM (MDA-MB-231 cells): 11.7131%

CC[C@H](C)[C@H](N)C(=O)N[C@@H](CC(N)=O)C(=O)N[C@@H](CC(C)C)C(=O)N[C@@H](CCCCN)C(=O)N[C@@H](C)C(=O)N[C@@H](CC(C)C)C(=O)N[C@@H](CCCNC(=N)N)C(=O)N[C@@H](C)C(=O)N[C@@H](CC(C)C)C(=O)N[C@@H](C)C(=O)N[C@@H](CCCCN)C(=O)N[C@@H](CCCCN)C(=O)N[C@H](C(=O)N[C@@H](CC(C)C)C(N)=O)[C@@H](C)CC [R7]
Average (percentage cell inhibition), Mastoparan PBMC (PBMC): 3.182% | Average (percentage cell inhibition), Dmastoparan MDA-MB231 12.5uM (MDA-MB-231 cells): 35.9182%

CC[C@H](C)[C@H](N)C(=O)N[C@@H](CC(N)=O)C(=O)N[C@@H](CC(C)C)C(=O)N[C@@H](CCCCN)C(=O)N[C@@H](C)C(=O)N[C@@H](CC(C)C)C(=O)N[C@@H](C)C(=O)N[C@@H](CCCNC(=N)N)C(=O)N[C@@H](CC(C)C)C(=O)N[C@@H](C)C(=O)N[C@@H](CCCCN)C(=O)N[C@@H](CCCCN)C(=O)N[C@H](C(=O)N[C@@H](CC(C)C)C(N)=O)[C@@H](C)CC [R8]
Average (percentage cell inhibition), Mastoparan PBMC (PBMC): 4.899% | Average (percentage cell inhibition), Dmastoparan MDA-MB231 12.5uM (MDA-MB-231 cells): 42.355%

CC[C@H](C)[C@H](N)C(=O)N[C@@H](CC(N)=O)C(=O)N[C@@H](CC(C)C)C(=O)N[C@@H](CCCCN)C(=O)N[C@@H](C)C(=O)N[C@@H](CC(C)C)C(=O)N[C@@H](C)C(=O)N[C@@H](C)C(=O)N[C@@H](CCCNC(=N)N)C(=O)N[C@@H](C)C(=O)N[C@@H](CCCCN)C(=O)N[C@@H](CCCCN)C(=O)N[C@H](C(=O)N[C@@H](CC(C)C)C(N)=O)[C@@H](C)CC [R9]
Average (percentage cell inhibition), Mastoparan PBMC (PBMC): 5.887% | Average (percentage cell inhibition), Dmastoparan MDA-MB231 12.5uM (MDA-MB-231 cells): 12.7524%

CC[C@H](C)[C@H](N)C(=O)N[C@@H](CC(N)=O)C(=O)N[C@@H](CC(C)C)C(=O)N[C@@H](CCCCN)C(=O)N[C@@H](C)C(=O)N[C@@H](CC(C)C)C(=O)N[C@@H](C)C(=O)N[C@@H](C)C(=O)N[C@@H](CC(C)C)C(=O)N[C@@H](CCCNC(=N)N)C(=O)N[C@@H](CCCCN)C(=O)N[C@@H](CCCCN)C(=O)N[C@H](C(=O)N[C@@H](CC(C)C)C(N)=O)[C@@H](C)CC [R10]
Average (percentage cell inhibition), Mastoparan PBMC (PBMC): 5.821% | Average (percentage cell inhibition), Dmastoparan MDA-MB231 12.5uM (MDA-MB-231 cells): 11.5132%

CC[C@H](C)[C@H](N)C(=O)N[C@@H](CC(N)=O)C(=O)N[C@@H](CC(C)C)C(=O)N[C@@H](CCCCN)C(=O)N[C@@H](C)C(=O)N[C@@H](CC(C)C)C(=O)N[C@@H](C)C(=O)N[C@@H](C)C(=O)N[C@@H](CC(C)C)C(=O)N[C@@H](C)C(=O)N[C@@H](CCCNC(=N)N)C(=O)N[C@@H](CCCCN)C(=O)N[C@H](C(=O)N[C@@H](CC(C)C)C(N)=O)[C@@H](C)CC [R11]
Average (percentage cell inhibition), Mastoparan PBMC (PBMC): 5.503% | Average (percentage cell inhibition), Dmastoparan MDA-MB231 12.5uM (MDA-MB-231 cells): 37.1061%

CC[C@H](C)[C@H](N)C(=O)N[C@@H](CC(N)=O)C(=O)N[C@@H](CC(C)C)C(=O)N[C@@H](CCCCN)C(=O)N[C@@H](C)C(=O)N[C@@H](CC(C)C)C(=O)N[C@@H](C)C(=O)N[C@@H](C)C(=O)N[C@@H](CC(C)C)C(=O)N[C@@H](C)C(=O)N[C@@H](CCCCN)C(=O)N[C@@H](CCCNC(=N)N)C(=O)N[C@H](C(=O)N[C@@H](CC(C)C)C(N)=O)[C@@H](C)CC [R12]
Average (percentage cell inhibition), Mastoparan PBMC (PBMC): -4.156% | Average (percentage cell inhibition), Dmastoparan MDA-MB231 12.5uM (MDA-MB-231 cells): 35.2659%

CC[C@H](C)[C@H](N)C(=O)N[C@@H](CC(N)=O)C(=O)N[C@@H](CC(C)C)C(=O)N[C@@H](CCCCN)C(=O)N[C@@H](C)C(=O)N[C@@H](CC(C)C)C(=O)N[C@@H](C)C(=O)N[C@@H](C)C(=O)N[C@@H](CC(C)C)C(=O)N[C@@H](C)C(=O)N[C@@H](CCCCN)C(=O)N[C@@H](CCCCN)C(=O)N[C@@H](CCCNC(=N)N)C(=O)N[C@@H](CC(C)C)C(N)=O [R13]
Average (percentage cell inhibition), Mastoparan PBMC (PBMC): -5.395% | Average (percentage cell inhibition), Dmastoparan MDA-MB231 12.5uM (MDA-MB-231 cells): 13.2975%

CC[C@H](C)[C@H](N)C(=O)N[C@@H](CC(N)=O)C(=O)N[C@@H](CC(C)C)C(=O)N[C@@H](CCCCN)C(=O)N[C@@H](C)C(=O)N[C@@H](CC(C)C)C(=O)N[C@@H](C)C(=O)N[C@@H](C)C(=O)N[C@@H](CC(C)C)C(=O)N[C@@H](C)C(=O)N[C@@H](CCCCN)C(=O)N[C@@H](CCCCN)C(=O)N[C@H](C(=O)N[C@@H](CCCNC(=N)N)C(N)=O)[C@@H](C)CC [R14]
Average (percentage cell inhibition), Mastoparan PBMC (PBMC): -1.726% | Average (percentage cell inhibition), Dmastoparan MDA-MB231 12.5uM (MDA-MB-231 cells): 9.085%

CC[C@H](C)[C@H](NC(=O)[C@H](CCCCN)NC(=O)[C@H](CCCCN)NC(=O)[C@H](C)NC(=O)[C@H](CC(C)C)NC(=O)[C@H](C)NC(=O)[C@H](C)NC(=O)[C@H](CC(C)C)NC(=O)[C@H](C)NC(=O)[C@H](CCCCN)NC(=O)[C@H](CC(C)C)NC(=O)[C@H](CC(N)=O)NC(=O)[C@@H](N)CO)C(=O)N[C@@H](CC(C)C)C(N)=O [S1]
Average (percentage cell inhibition), Mastoparan PBMC (PBMC): -13.6432% | Average (percentage cell inhibition), Dmastoparan MDA-MB231 12.5uM (MDA-MB-231 cells): 31.5771%

CC[C@H](C)[C@H](N)C(=O)N[C@@H](CO)C(=O)N[C@@H](CC(C)C)C(=O)N[C@@H](CCCCN)C(=O)N[C@@H](C)C(=O)N[C@@H](CC(C)C)C(=O)N[C@@H](C)C(=O)N[C@@H](C)C(=O)N[C@@H](CC(C)C)C(=O)N[C@@H](C)C(=O)N[C@@H](CCCCN)C(=O)N[C@@H](CCCCN)C(=O)N[C@H](C(=O)N[C@@H](CC(C)C)C(N)=O)[C@@H](C)CC [S2]
Average (percentage cell inhibition), Mastoparan PBMC (PBMC): 20.6714% | Average (percentage cell inhibition), Dmastoparan MDA-MB231 12.5uM (MDA-MB-231 cells): 39.9159%

CC[C@H](C)[C@H](N)C(=O)N[C@@H](CC(N)=O)C(=O)N[C@@H](CO)C(=O)N[C@@H](CCCCN)C(=O)N[C@@H](C)C(=O)N[C@@H](CC(C)C)C(=O)N[C@@H](C)C(=O)N[C@@H](C)C(=O)N[C@@H](CC(C)C)C(=O)N[C@@H](C)C(=O)N[C@@H](CCCCN)C(=O)N[C@@H](CCCCN)C(=O)N[C@H](C(=O)N[C@@H](CC(C)C)C(N)=O)[C@@H](C)CC [S3]
Average (percentage cell inhibition), Mastoparan PBMC (PBMC): 5.178% | Average (percentage cell inhibition), Dmastoparan MDA-MB231 12.5uM (MDA-MB-231 cells): 12.1099%

CC[C@H](C)[C@H](N)C(=O)N[C@@H](CC(N)=O)C(=O)N[C@@H](CC(C)C)C(=O)N[C@@H](CO)C(=O)N[C@@H](C)C(=O)N[C@@H](CC(C)C)C(=O)N[C@@H](C)C(=O)N[C@@H](C)C(=O)N[C@@H](CC(C)C)C(=O)N[C@@H](C)C(=O)N[C@@H](CCCCN)C(=O)N[C@@H](CCCCN)C(=O)N[C@H](C(=O)N[C@@H](CC(C)C)C(N)=O)[C@@H](C)CC [S4]
Average (percentage cell inhibition), Mastoparan PBMC (PBMC): 7.7% | Average (percentage cell inhibition), Dmastoparan MDA-MB231 12.5uM (MDA-MB-231 cells): 28.0357%

CC[C@H](C)[C@H](N)C(=O)N[C@@H](CC(N)=O)C(=O)N[C@@H](CC(C)C)C(=O)N[C@@H](CCCCN)C(=O)N[C@@H](CO)C(=O)N[C@@H](CC(C)C)C(=O)N[C@@H](C)C(=O)N[C@@H](C)C(=O)N[C@@H](CC(C)C)C(=O)N[C@@H](C)C(=O)N[C@@H](CCCCN)C(=O)N[C@@H](CCCCN)C(=O)N[C@H](C(=O)N[C@@H](CC(C)C)C(N)=O)[C@@H](C)CC [S5]
Average (percentage cell inhibition), Mastoparan PBMC (PBMC): 9.929% | Average (percentage cell inhibition), Dmastoparan MDA-MB231 12.5uM (MDA-MB-231 cells): 26.0666%

CC[C@H](C)[C@H](N)C(=O)N[C@@H](CC(N)=O)C(=O)N[C@@H](CC(C)C)C(=O)N[C@@H](CCCCN)C(=O)N[C@@H](C)C(=O)N[C@@H](CO)C(=O)N[C@@H](C)C(=O)N[C@@H](C)C(=O)N[C@@H](CC(C)C)C(=O)N[C@@H](C)C(=O)N[C@@H](CCCCN)C(=O)N[C@@H](CCCCN)C(=O)N[C@H](C(=O)N[C@@H](CC(C)C)C(N)=O)[C@@H](C)CC [S6]
Average (percentage cell inhibition), Mastoparan PBMC (PBMC): -17.608% | Average (percentage cell inhibition), Dmastoparan MDA-MB231 12.5uM (MDA-MB-231 cells): 29.7699%

CC[C@H](C)[C@H](N)C(=O)N[C@@H](CC(N)=O)C(=O)N[C@@H](CC(C)C)C(=O)N[C@@H](CCCCN)C(=O)N[C@@H](C)C(=O)N[C@@H](CC(C)C)C(=O)N[C@@H](CO)C(=O)N[C@@H](C)C(=O)N[C@@H](CC(C)C)C(=O)N[C@@H](C)C(=O)N[C@@H](CCCCN)C(=O)N[C@@H](CCCCN)C(=O)N[C@H](C(=O)N[C@@H](CC(C)C)C(N)=O)[C@@H](C)CC [S7]
Average (percentage cell inhibition), Mastoparan PBMC (PBMC): -4.112% | Average (percentage cell inhibition), Dmastoparan MDA-MB231 12.5uM (MDA-MB-231 cells): 34.1343%

CC[C@H](C)[C@H](N)C(=O)N[C@@H](CC(N)=O)C(=O)N[C@@H](CC(C)C)C(=O)N[C@@H](CCCCN)C(=O)N[C@@H](C)C(=O)N[C@@H](CC(C)C)C(=O)N[C@@H](C)C(=O)N[C@@H](CO)C(=O)N[C@@H](CC(C)C)C(=O)N[C@@H](C)C(=O)N[C@@H](CCCCN)C(=O)N[C@@H](CCCCN)C(=O)N[C@H](C(=O)N[C@@H](CC(C)C)C(N)=O)[C@@H](C)CC [S8]
Average (percentage cell inhibition), Mastoparan PBMC (PBMC): -6.033% | Average (percentage cell inhibition), Dmastoparan MDA-MB231 12.5uM (MDA-MB-231 cells): 32.8816%

CC[C@H](C)[C@H](N)C(=O)N[C@@H](CC(N)=O)C(=O)N[C@@H](CC(C)C)C(=O)N[C@@H](CCCCN)C(=O)N[C@@H](C)C(=O)N[C@@H](CC(C)C)C(=O)N[C@@H](C)C(=O)N[C@@H](C)C(=O)N[C@@H](CO)C(=O)N[C@@H](C)C(=O)N[C@@H](CCCCN)C(=O)N[C@@H](CCCCN)C(=O)N[C@H](C(=O)N[C@@H](CC(C)C)C(N)=O)[C@@H](C)CC [S9]
Average (percentage cell inhibition), Mastoparan PBMC (PBMC): -4.8979% | Average (percentage cell inhibition), Dmastoparan MDA-MB231 12.5uM (MDA-MB-231 cells): 27.2293%
